What all share (format): cell-based
The subject of one experiment is NCI-H929. Nature of the experiment: CellTiter-Glo proliferation assay, anti-CD48 ADCs (Example 18). The conditions noted are these: NCI-H929, 5 days. As for the experimental part: (§1) The CD48 MCL-1 antibody drug conjugate CD48-L7-P1, isotype IgG1-L7-P1 ADC, and MCL-1 free payload P1 were tested against four endogenous cancer cell lines. KMS-21 BM (JCRB No. JCRB11185 cultured in RPMI-1640+10% FBS), KMS-20 (JCRB No. JCRB1196 cultured in RPMI-1640+10% FBS), KMS-27 (JCRB No. JCRB1188 cultured in RPMI-1640+10% FBS), and NCI-H929 (ATCC No. CRL-9068 cultured in RPMI-1640+10% FBS+0.05 mM 2-mercaptoethanol).
(§2) The ability of the CD48 MCL-1 antibody drug conjugate CD48-L7-P1, isotype IgG1-L7-P1 ADC, and MCL-1 free payload P1 to inhibit cell proliferation and survival was assessed using the Promega CellTiter-Glo® proliferation assay.
(§3) Cell lines were cultured in media that is optimal for their growth at 5% CO2, 37° C. in a tissue culture incubator. Prior to seeding for the proliferation assay, the cells were split at least 2 days before the assay to ensure optimal growth density. On the day of seeding, suspension cells were harvested. Cell viability and cell density were determined using a cell counter (Vi-Cell XR Cell Viability Analyzer, Beckman Coulter). […] Cells were seeded at a density of 1,000 cells per well in 45 μL of standard growth media. Plates were incubated at 5% CO2, 37° C. overnight in a tissue culture incubator. The next day, free MCL-1 payload (P1), targeting MCL-1 ADC, and non-targeting isotype ADCs were prepared at 10× in standard growth media. The prepared drug treatments were then added to the cells resulting in final concentrations of 0.0005-500 nM and a final volume of 50 μL per well. Each drug concentration was tested in quadruplets. Plates were incubated at 5% CO2, 37° C. for 5 days in a tissue culture incubator, after which cell viability was assessed through the addition of 25 μL of CellTiter Glo® (Promega, cat #G7573), a reagent which lyses cells and measures total adenosine triphosphate (ATP) content. Plates were incubated at room temperature for 10 minutes to stabilize luminescent signals prior to reading using a luminescence reader (EnVision Multilabel Plate Reader, PerkinElmer). To evaluate the effect of the drug treatments, luminescent counts from wells containing untreated cells (100% viability) were used to normalize treated samples. A variable slope model was applied to fit a nonlinear regression curve to the data in GraphPad PRISM version 7.02 software. IC50 and Amax values were extrapolated from the resultant curves.
(§4) The dose response curves of representative cancer cell lines expressing the CD48 target of interest are shown in FIG. 22 (square=CD48-L7-P1, circle IgG-L7-P1, triangle=free MCL1 payload P1).

Another experiment concerns KMS-27. The experiment is described as above. Particulars: KMS-27, 5 days. On the procedure: as §1, §2, §3, §4
Another experiment deals with KMS-20. The experiment is described as above. The conditions noted are these: KMS-20, 5 days. On the procedure:
as §1, §2, §3, §4

For another experiment, the system named is KMS-21 BM. The description is as above. Particulars: 5 days. On the procedure: as §1, §2, §3, §4
In the next experiment the test system is nomo1. Nature of the experiment: In vitro ADC activity, AML cell lines, CellTiter-Glo (Example 20). Particulars: nomo1, 5 days. Background: ATP-based viability assays read luminescence as a measure of living cells.

Broadly, the IC50 is the concentration that gives 50% inhibition. For orientation: GI50 means the concentration giving 50% growth inhibition. A higher GI50 goes with less potent growth inhibition. With `COc1ccccc1-c1nccc(COc2ccccc2C[C@@H](Oc2ncnc3sc(-c4ccc(F)cc4)c(-c4ccc(OCCN5CCN(C)CC5)c(Cl)c4C)c23)C(=O)O)n1` [P1, (2R)-2-[5-[3-chloro-2-methyl-4-[2-(4-methylpiperazin-1-yl)ethoxy]phenyl]-6-(4-fluorophenyl)thieno[2,3-d]pyrimidin-4-yl]oxy-3-[2-[[2-(2-methoxyphenyl)pyrimidin-4-yl]methoxy]phenyl]propanoic acid], the IC50 with NCI-H929 (Homo sapiens, 120 h) turned out to be 2.04 nM; in the experiment with KMS-27 (120 h), 6.98 nM; with KMS-20 (120 h), 4.95 nM; with KMS-21 BM (120 h), 0.941 nM. The Amax in the experiment on NCI-H929 (in %) is recorded as 109.1; in the experiment with KMS-27 (in %), 88.98; in the experiment with KMS-20 (in %), 94.34; in the experiment with KMS-21 BM (in %), 85.27; in the experiment with nomo1 (in % (unit assumed)) it was −80. The molecule further had a GI50 in the experiment with nomo1 (Homo sapiens, NOMO-1, 120 h) of 1 nM.

The record behind these values is patent US20230092679A1, “MCL-1 INHIBITOR ANTIBODY-DRUG CONJUGATES AND METHODS OF USE” (NOVARTIS AG, priority 2019, published 2023).
